These results are taken from ChEMBL document CHEMBL5036314, “Structure-Guided Design of the First Noncovalent Small-Molecule Inhibitor of CRM1” (J Med Chem, 2021).

The Kd is a measure of binding affinity in units of concentration. Usually IC50 stands for the concentration that gives 50% inhibition.

Active and inactive are the calls of the source. The calls are words filed in the database; no cut-off is given here.

For one test, the system named is HepG2. Description: Anti-cancer activity against human HepG2 cells assessed as cell survival at 10 uM for 72 hrs replaced with compound containing fresh culture medium every 12 hrs by Sulforhodamine B assay. It is filed as functional, cell-based. (Sulforhodamine B stains cellular protein and so reports cell mass.)
The next test deals with Exportin-1 (Homo sapiens, UniProt O14980). Nature of the test: Binding affinity to Cy3 dye-labelled human CRM1 assessed as dissociation constant in absence of RanGTP at 10 uM incubated for 1 hr by micro-scale thermophoresis analysis.
Exportin-1, sequence (O14980 whole entry): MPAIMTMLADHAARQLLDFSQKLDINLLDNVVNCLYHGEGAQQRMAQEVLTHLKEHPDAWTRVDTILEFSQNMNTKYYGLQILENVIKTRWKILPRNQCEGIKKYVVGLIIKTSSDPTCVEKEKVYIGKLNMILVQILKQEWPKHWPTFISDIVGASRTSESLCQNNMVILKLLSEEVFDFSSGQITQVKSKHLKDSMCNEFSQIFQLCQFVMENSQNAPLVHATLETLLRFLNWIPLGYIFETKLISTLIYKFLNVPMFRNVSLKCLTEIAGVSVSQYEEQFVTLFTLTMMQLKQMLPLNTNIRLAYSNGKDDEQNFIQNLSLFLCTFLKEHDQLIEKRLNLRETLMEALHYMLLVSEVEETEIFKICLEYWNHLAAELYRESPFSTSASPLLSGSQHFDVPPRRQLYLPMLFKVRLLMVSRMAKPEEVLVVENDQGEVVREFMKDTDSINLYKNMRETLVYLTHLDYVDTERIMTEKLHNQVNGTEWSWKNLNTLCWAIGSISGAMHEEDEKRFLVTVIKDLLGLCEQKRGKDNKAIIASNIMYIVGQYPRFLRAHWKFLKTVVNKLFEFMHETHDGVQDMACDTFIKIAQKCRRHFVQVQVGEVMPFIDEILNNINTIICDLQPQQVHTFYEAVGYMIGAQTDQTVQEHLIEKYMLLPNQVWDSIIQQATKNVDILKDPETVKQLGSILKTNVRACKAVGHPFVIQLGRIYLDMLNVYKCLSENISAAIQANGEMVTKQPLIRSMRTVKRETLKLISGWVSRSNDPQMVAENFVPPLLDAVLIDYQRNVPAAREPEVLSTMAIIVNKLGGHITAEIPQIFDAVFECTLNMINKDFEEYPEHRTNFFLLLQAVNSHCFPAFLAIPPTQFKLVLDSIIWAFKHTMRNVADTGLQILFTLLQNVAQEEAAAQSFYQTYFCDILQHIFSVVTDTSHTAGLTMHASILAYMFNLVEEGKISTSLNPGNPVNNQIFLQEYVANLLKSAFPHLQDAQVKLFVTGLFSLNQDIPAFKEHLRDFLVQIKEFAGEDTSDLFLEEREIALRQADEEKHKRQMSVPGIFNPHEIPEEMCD
The test system of a further test is A549. Description: Induction of apoptosis in human A549 cells assessed as cell death at 1 to 10 uM treated for 12 hrs by Annexin V FITC/propidium iodide staining based flow cytometric analysis. As to conditions: dose 1-10 µM. The test is classed as functional. On the technique in general: In flow cytometry, cells or beads pass a laser one at a time.
Test [1] has as its system HeLa. Nature of the test: Inhibition of cellular nuclear export in human HeLa cells transfected with hCRM1- C528T/F572Y dual mutant at 10 uM incubated for 72 hrs replaced with compound containing fresh culture medium every 12 hrs by Sulforhodamine B assay. The test is classed as functional, cell-based.
Test [2] relates to HeLa. Description: Inhibition of cellular nuclear export of endogenous cargo RanBP1 in human HeLa cells transfected with pmCherry-C1 plasmid at 1 to 10 uM incubated for 12 hrs by confocal microscope analysis. It is filed as functional, cell-based. The note with it: dose 1-10 µM.
Test [3] deals with A2780. Description: Induction of apoptosis in human A2780 cells assessed as late apoptotic cells at 5 uM replaced with compound containing fresh culture medium every 12 hrs measured for 72 hrs by Annexin V FITC/propidium iodide staining based flow cytometric analysis (reference value: 1.35%). It is filed as functional.
Test [4] relates to A2780. Nature of the test: Induction of apoptosis in human A2780 cells assessed as necrotic cells at 5 uM replaced with compound containing fresh culture medium every 12 hrs measured for 72 hrs by Annexin V FITC/propidium iodide staining based flow cytometric analysis (reference value: 1%). The test is classed as functional.
Another test has as its system HGC-27. Nature of the test: Anti-cancer activity against human HGC-27 cells assessed as cell survival at 10 uM for 72 hrs replaced with compound containing fresh culture medium every 12 hrs by Sulforhodamine B assay. The test is classed as functional, cell-based.
Test [5] concerns A2780. Description: Induction of apoptosis in human A2780 cells assessed as early apoptotic cells at 5 uM replaced with compound containing fresh culture medium every 12 hrs measured for 72 hrs by Annexin V FITC/propidium iodide staining based flow cytometric analysis (reference value: 3.67%). It is filed as functional.
Test [6] concerns A2780. Nature of the test: Anti-cancer activity against human A2780 cells assessed as fold increase Annexin V positive cells at 10 uM incubated for 2 hrs by EdU incorporation based assay. It is filed as functional.
In test [7] the test system is A2780. Nature of the test: Induction of apoptosis in human A2780 cells assessed as necrotic cells at 10 uM replaced with compound containing fresh culture medium every 12 hrs measured for 72 hrs by Annexin V FITC/propidium iodide staining based flow cytometric analysis (reference value: 1%). The test is classed as functional.
In a further test the test system is Huh-7. Nature of the test: Anti-cancer activity against human HuH-7 cells assessed as cell survival at 10 uM for 72 hrs replaced with compound containing fresh culture medium every 12 hrs by Sulforhodamine B assay. The test is classed as functional, cell-based.
The subject of test [8] is A2780. Nature of the test: Anti-cancer activity against human A2780 cells assessed as inhibition of cell viability measured for 72 hrs replaced with compound containing fresh culture medium every 12 hrs by Sulforhodamine B assay. It is filed as functional, cell-based.

On to `CC(C)CCNC/C=C/[S+]([O-])c1cc(C(F)(F)F)cc(C(F)(F)F)c1` (stereo not drawn), for which the result with HepG2, with HGC-27 and with Huh-7 was Active. At Exportin-1, the Kd turned out to be 0.024 µM. Also, the Activity entry in the test on A549 is “Dose-Dependent Effect”; in the test on A2780 [3] it was 3.29%; in the test with A2780 [4], 1.88%; in the test with A2780 [5], 15.55%; in the test on A2780 [7], 4.19%. Moreover, the inhibition entry with HeLa [1] was “inactive”. Further, the inhibition result in the test on HeLa [2] was “Active”. Moreover, the “fold change (FC)” value in the test on A2780 [6] is on record as 2. Besides, in the test on A2780 [8], the IC50 turned out to be 5 µM.
